{"source": "patent US20080207621A1", "about": "“SOLUBLE EPOXIDE HYDROLASE INHIBITORS” (Arete Therapeutics, Inc., priority 2006, published 2008)", "key": {"[1]": {"system": "soluble epoxide hydrolase (sEH)", "assay": "Fluorescent assay for mouse and human soluble epoxide hydrolase (CMNPC substrate)", "type": "biochemical", "conditions": "substrate CMNPC 5 μM, 30° C.", "excerpt": "Fluorescent Assay for Mouse and Human Soluble Epoxide Hydrolase Recombinant mouse sEH (MsEH) and human sEH (HsEH) were produced in a baculovirus expression system as previously reported. Grant et al., J. Biol. Chem., 268:17628-17633 (1993); Beetham et al., Arch. Biochem. Biophys., 305:197-201 (1993). The expressed proteins were purified from cell lysate by affinity chromatography. Wixtrom et al., Anal. Biochem., 169:71-80 (1988). Protein concentration was quantified using the Pierce BCA assay using bovine serum albumin as the calibrating standard. The preparations were at least 97% pure as judged by SDS-PAGE and scanning densitometry. They contained no detectable esterase or glutathione transferase activity which can interfere with the assay. The assay was also evaluated with similar results in crude cell lysates or homogenate of tissues. The IC50s for each inhibitor were determined according to the following procedure: […] Jones P. D. et. al.; Analytical Biochemistry 2005; 343: pp. 66-75) Bis/Tris HCl 25 mM pH 7.0 containing 0.1 mg/mL of BSA (buffer […] at 0.25 mM in DMSO. Mother solution of enzyme in buffer A (Mouse sEH at 6 μg/mL and Human sEH at 5 μg/mL). Inhibitor dissolved in DMSO at the appropriate concentration. In a black 96 well plate, fill all the wells with 150 μL of buffer A. Add 2 μL of DMSO in well A2 and A3, and then add 2 μL of inhibitor solution in A1 and A4 through A12. Add 150 μL of buffer A in row A, then mix several time and transfer 150 μL to row B. Repeat this operation up to row H. The 150 μL removed from row H is discarded. Add 20 μL of buffer A in column 1 and 2, then add 20 μL of enzyme solution to column 3 to 12. Incubate the plate for 5 minutes in the plate reader at 30° C. During incubation prepare the working solution of substrate by mixing 3.68 mL of buffer A (4×0.920 mL) with 266 μL (2×133 μL) of substrate solution). At t=0, add 30 μL of working substrate solution with multi-channel pipette labeled “Briggs 303” and start the reading ([S]final: 5 μM). Read with ex: 330 nm (20 nm) and em: 465 nm (20 nm) every 30 second for 10 minutes. The velocities are used to analyze and calculate the IC50s."}}}
{"smiles": "CC(C)N1CCN(S(=O)(=O)c2ccc(NC(=O)Nc3ccc(C(F)(F)F)cc3)cc2)CC1", "note": "[Compound 15, 1-[4-(4-Isopropyl-piperazine-1-sulfonyl)-phenyl]-3-(4-trifluoromethyl-phenyl)-urea]", "values": [{"measurement": "% Inhibition", "setting": "[1]; Conc. 50 nM", "value": 90, "unit": "%"}]}
{"smiles": "O=C(Nc1ccc(C(F)(F)F)cc1)Nc1cccc(S(=O)(=O)N2CCOCC2)c1", "note": "[Compound 28, 1-[3-(Morpholine-4-sulfonyl)-phenyl]-3-(4-trifluoromethyl-phenyl)-urea]", "values": [{"measurement": "% Inhibition", "setting": "[1]; Conc. 50 nM", "value": 93, "unit": "%"}]}
{"smiles": "O=C(Nc1ccc(C(F)(F)F)cc1)Nc1ccc(S(=O)(=O)N2CCOCC2)cc1", "note": "[Compound 27, 1-[4-(Morpholine-4-sulfonyl)-phenyl]-3-(4-trifluoromethyl-phenyl)-urea]", "values": [{"measurement": "% Inhibition", "setting": "[1]; Conc. 50 nM", "value": 95, "unit": "%"}]}
{"smiles": "CNS(=O)(=O)c1cccc(NC(=O)Nc2ccc(C(F)(F)F)cc2)c1", "note": "[Compound 12, N-methyl-3-[3-(4-trifluoromethylphenyl)ureido]benzenesulfonamide]", "values": [{"measurement": "% Inhibition", "setting": "[1]; Conc. 50 nM", "value": 85, "unit": "%"}, {"measurement": "melting point", "value": "238 to 240", "unit": "°C"}]}
{"smiles": "O=C(Nc1ccc(C(F)(F)F)cc1)Nc1ccc(S(=O)(=O)NCCN2CCOCC2)cc1", "note": "[Compound 7, N-(2-Morpholin-4-yl-ethyl)-4-[3-(4-trifluoromethyl-phenyl)-ureido]-benzenesulfonamide]", "values": [{"measurement": "% Inhibition", "setting": "[1]; Conc. 50 nM", "value": 91, "unit": "%"}]}
{"smiles": "NS(=O)(=O)c1cccc(NC(=O)Nc2ccc(C(F)(F)F)cc2)c1", "note": "[Compound 4, 3-[3-(4-Trifluoromethyl-phenyl)-ureido]-benzenesulfonamide]", "values": [{"measurement": "% Inhibition", "setting": "[1]; Conc. 50 nM", "value": 75, "unit": "%"}]}
{"smiles": "NS(=O)(=O)c1cccc(NC(=O)NC23CC4CC(CC(C4)C2)C3)c1", "note": "[Compound 2, 3-(3-Adamantan-1-yl-ureido)-benzenesulfonamide]", "values": [{"measurement": "% Inhibition", "setting": "[1]; Conc. 500 nM", "value": 94, "unit": "%"}]}
{"smiles": "NS(=O)(=O)c1ccc(NC(=O)NC23CC4CC(CC(C4)C2)C3)cc1", "note": "[Compound 1, 4-(3-Adamantan-1-yl-ureido)-benzenesulfonamide]", "values": [{"measurement": "% Inhibition", "setting": "[1]; Conc. 500 nM", "value": 92, "unit": "%"}]}
{"smiles": "O=C(Nc1ccc(C(F)(F)F)cc1)Nc1cccc(S(=O)(=O)Nc2ccc(Cl)cc2)c1", "note": "[Compound 26, N-(4-Chloro-phenyl)-3-[3-(4-trifluoromethyl-phenyl)-ureido]-benzenesulfonamide]", "values": [{"measurement": "% Inhibition", "setting": "[1]; Conc. 50 nM", "value": 99, "unit": "%"}, {"measurement": "melting point", "value": "196 to 198", "unit": "°C"}]}
{"smiles": "O=C(Nc1ccc(C(F)(F)F)cc1)Nc1ccc(S(=O)(=O)Nc2ccc(Cl)cc2)cc1", "note": "[Compound 25, N-(4-Chloro-phenyl)-4-[3-(4-trifluoromethyl-phenyl)-ureido]-benzenesulfonamide]", "values": [{"measurement": "% Inhibition", "setting": "[1]; Conc. 50 nM", "value": 99, "unit": "%"}]}
{"smiles": "CC(=O)NS(=O)(=O)c1cccc(NC(=O)Nc2ccc(C(F)(F)F)cc2)c1", "note": "[Compound 20, N-(3-(3-(4-(trifluoromethyl)phenyl)ureido)phenylsulfonyl)aceta-mide]", "values": [{"measurement": "% Inhibition", "setting": "[1]; Conc. 5000 nM", "value": 85, "unit": "%"}, {"measurement": "melting point", "value": "115 to 121", "unit": "°C"}]}
{"smiles": "O=C(O)CCCNS(=O)(=O)c1ccc(NC(=O)Nc2ccc(C(F)(F)F)cc2)cc1", "note": "[Compound 23, 4-{4-[3-(4-Trifluoromethyl-phenyl)-ureido]-benzenesulfonylamino}-butyric acid]", "values": [{"measurement": "% Inhibition", "setting": "[1]; Conc. 50 nM", "value": 80, "unit": "%"}, {"measurement": "melting point", "value": "172 to 175", "unit": "°C"}]}
{"smiles": "CC(C)N1CCN(S(=O)(=O)c2cccc(NC(=O)Nc3ccc(C(F)(F)F)cc3)c2)CC1", "note": "[Compound 16, 1-[3-(4-Isopropyl-piperazine-1-sulfonyl)-phenyl]-3-(4-trifluoromethyl-phenyl)-urea]", "values": [{"measurement": "% Inhibition", "setting": "[1]; Conc. 50 nM", "value": 92, "unit": "%"}]}
{"smiles": "O=C(Nc1ccc(C(F)(F)F)cc1)Nc1cccc(S(=O)(=O)NCCN2CCOCC2)c1", "note": "[Compound 8, N-(2-Morpholin-4-yl-ethyl)-3-[3-(4-trifluoromethyl-phenyl)-ureido]-benzenesulfonamide]", "values": [{"measurement": "% Inhibition", "setting": "[1]; Conc. 50 nM", "value": 94, "unit": "%"}]}
